Test results: ChEMBL document CHEMBL3886193, “Bicyclic sulfonamide compounds as sodium channel inhibitors” (2015)
Several values for one entry are separate records, joined by “and”; a condition that tells them apart may be missing. Identical values can stand only once.

What follows are compounds tested against Sodium channel protein type 9 subunit alpha (Homo sapiens, UniProt Q15858) (assay: Compound effects were measured on a partially inactivated state of the sodium channel. Cells were clamped to a holding potential yielding 20 to 50% inactivation. To elicit sodium current, channels were activated by pulsing to -10 mV for 20 msec. This voltage protocol was repeated at a rate of 0.1 Hz throughout the experiment.).
Sodium channel protein type 9 subunit alpha, sequence (Q15858 whole entry): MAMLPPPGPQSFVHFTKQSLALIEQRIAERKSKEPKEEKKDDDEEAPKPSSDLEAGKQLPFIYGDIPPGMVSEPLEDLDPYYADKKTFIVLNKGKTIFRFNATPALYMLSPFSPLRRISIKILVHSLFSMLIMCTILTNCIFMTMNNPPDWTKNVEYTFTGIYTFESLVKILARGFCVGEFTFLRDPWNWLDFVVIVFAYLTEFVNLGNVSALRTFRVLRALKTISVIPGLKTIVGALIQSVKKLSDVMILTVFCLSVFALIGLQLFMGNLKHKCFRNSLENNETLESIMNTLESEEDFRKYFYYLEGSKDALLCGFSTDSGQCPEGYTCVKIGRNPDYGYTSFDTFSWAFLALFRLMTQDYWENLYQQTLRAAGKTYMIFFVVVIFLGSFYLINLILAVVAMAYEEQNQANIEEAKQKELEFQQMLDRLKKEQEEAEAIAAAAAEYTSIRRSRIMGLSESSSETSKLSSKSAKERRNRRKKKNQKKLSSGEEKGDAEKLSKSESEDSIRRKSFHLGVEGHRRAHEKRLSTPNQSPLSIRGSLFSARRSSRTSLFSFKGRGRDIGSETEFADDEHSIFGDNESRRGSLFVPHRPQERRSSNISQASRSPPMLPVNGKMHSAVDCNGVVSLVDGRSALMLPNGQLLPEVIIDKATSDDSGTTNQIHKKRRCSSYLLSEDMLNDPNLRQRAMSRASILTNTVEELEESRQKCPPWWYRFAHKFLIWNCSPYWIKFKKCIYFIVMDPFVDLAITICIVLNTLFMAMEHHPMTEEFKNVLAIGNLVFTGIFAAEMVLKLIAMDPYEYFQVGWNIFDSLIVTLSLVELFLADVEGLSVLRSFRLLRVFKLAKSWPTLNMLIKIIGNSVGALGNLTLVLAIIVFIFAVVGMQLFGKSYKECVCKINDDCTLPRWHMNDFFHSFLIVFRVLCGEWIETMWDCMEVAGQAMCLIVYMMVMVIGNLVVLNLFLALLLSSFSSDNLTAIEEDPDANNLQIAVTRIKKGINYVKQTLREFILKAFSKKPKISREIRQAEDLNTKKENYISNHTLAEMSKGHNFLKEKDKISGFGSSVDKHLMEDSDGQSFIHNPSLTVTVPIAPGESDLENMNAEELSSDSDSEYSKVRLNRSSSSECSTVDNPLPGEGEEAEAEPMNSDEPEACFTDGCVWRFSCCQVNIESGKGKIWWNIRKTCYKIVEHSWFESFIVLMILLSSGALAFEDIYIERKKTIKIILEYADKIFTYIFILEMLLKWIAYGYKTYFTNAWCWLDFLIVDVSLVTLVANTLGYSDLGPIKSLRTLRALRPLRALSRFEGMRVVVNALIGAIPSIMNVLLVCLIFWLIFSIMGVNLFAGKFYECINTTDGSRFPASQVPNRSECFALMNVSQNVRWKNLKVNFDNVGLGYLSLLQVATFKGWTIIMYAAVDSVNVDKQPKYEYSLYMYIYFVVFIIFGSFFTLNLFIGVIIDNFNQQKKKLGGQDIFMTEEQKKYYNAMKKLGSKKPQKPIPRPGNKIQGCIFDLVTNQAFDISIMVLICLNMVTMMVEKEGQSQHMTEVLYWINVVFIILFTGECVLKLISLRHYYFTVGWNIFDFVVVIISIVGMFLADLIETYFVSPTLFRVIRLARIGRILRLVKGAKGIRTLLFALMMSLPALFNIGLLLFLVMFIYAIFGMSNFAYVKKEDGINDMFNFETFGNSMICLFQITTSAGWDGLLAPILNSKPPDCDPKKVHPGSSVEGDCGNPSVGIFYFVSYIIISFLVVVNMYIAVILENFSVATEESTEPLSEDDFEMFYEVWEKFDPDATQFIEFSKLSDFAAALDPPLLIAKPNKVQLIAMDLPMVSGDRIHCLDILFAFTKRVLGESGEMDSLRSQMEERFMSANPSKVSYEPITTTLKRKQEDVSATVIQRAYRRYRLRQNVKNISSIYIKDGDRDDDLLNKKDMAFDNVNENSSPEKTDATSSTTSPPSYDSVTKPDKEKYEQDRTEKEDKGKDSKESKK
Format: cell-based, Sf9

SMILES | IC50
COc1ccc(CC(=O)OC(C)(C)C)cc1-n1c(=O)ccc2cc(S(=O)(=O)Nc3ccon3)ccc21 | 1.98 µM
COc1ccc(-c2cc(OC)c(-n3c(=O)ccc4cc(S(=O)(=O)Nc5ccon5)ccc43)cc2F)cc1Cl | 0.025 µM
COc1cc(-c2ccc(C#N)c(C)c2)c(F)cc1-n1c(=O)ccc2cc(S(=O)(=O)Nc3ccon3)ccc21 | 0.091 µM
COc1cc(-c2ccc(Cl)cc2)ccc1-n1c(=O)ccc2cc(S(=O)(=O)Nc3ccon3)ccc21 | 0.022 µM
COc1cc(C#CC2CCCC2)c(F)cc1-n1c(=O)ccc2cc(S(=O)(=O)Nc3cccnn3)ccc21 | 0.008 µM
COc1cc(-c2cc(Cl)cnc2OC)c(F)cc1-n1c(=O)ccc2cc(S(=O)(=O)Nc3ccon3)ccc21 | 0.024 µM
COc1cc(C2CC2)c(Cl)cc1-n1c(=O)ccc2cc(S(=O)(=O)Nc3ccon3)ccc21 | 0.481 µM
COc1cc(C#CC(C)(C)OC)c(F)cc1-n1c(=O)ccc2cc(S(=O)(=O)Nc3ccon3)ccc21 | 0.373 µM
COc1cc(CC2CCCC2)c(F)cc1-n1c(=O)ccc2cc(S(=O)(=O)Nc3ccon3)ccc21 | 0.011 µM
COc1cc(CC2CCCCC2)c(F)cc1-n1c(=O)ccc2cc(S(=O)(=O)Nc3ncon3)ccc21 | 0.03 µM
COc1cc(-c2ccccn2)c(F)cc1-n1c(=O)ccc2cc(S(=O)(=O)Nc3ccon3)ccc21 | 0.888 µM
COCc1cc(NS(=O)(=O)c2ccc3c(ccc(=O)n3-c3cc(F)c(Br)cc3OC)c2)ncn1 | 4.53 µM
CCc1nccc(NS(=O)(=O)c2ccc3c(ccc(=O)n3-c3cc(F)c(-c4cc(F)cc(Cl)c4)cc3OC)c2)n1 | 7.92 µM
COc1cc(OC)cc(-c2cc(OC)c(-n3c(=O)ccc4cc(S(=O)(=O)Nc5ccon5)ccc43)cc2F)c1 | 0.012 µM
COc1cc(C2CCCC2)c(F)cc1-n1c(=O)ccc2cc(S(=O)(=O)Nc3ccon3)ccc21 | 0.088 µM
COc1cc(C#CC2(C)COC2)c(F)cc1-n1c(=O)ccc2cc(S(=O)(=O)Nc3ccon3)ccc21 | 1.55 µM

SMILES | IC50
COc1cc(-c2ccc(Cl)c(C)c2)c(F)cc1-n1c(=O)ccc2cc(S(=O)(=O)Nc3ccon3)c(F)cc21 | 0.013 µM
COc1cc(-c2cc(F)cc(Cl)c2)c(F)cc1-n1c(=O)ccc2cc(S(=O)(=O)Nc3ncco3)ccc21 | 0.014 µM
COc1cc(-c2cc(C)cc(F)c2)c(F)cc1-n1c(=O)ccc2cc(S(=O)(=O)Nc3ccon3)ccc21 | 0.008 µM
COc1cc(-c2cccc(C(F)(F)F)c2)c(F)cc1-n1c(=O)ccc2cc(S(=O)(=O)Nc3cc(C)ncn3)ccc21 | 0.01 µM
COc1cc(C#CC2CCCC2)c(F)cc1-n1c(=O)ccc2cc(S(=O)(=O)Nc3ccon3)ccc21 | 0.022 µM
COc1cc(-c2cc(F)cc(OC(F)F)c2)c(F)cc1-n1c(=O)ccc2cc(S(=O)(=O)Nc3ccon3)ccc21 | 0.011 µM
COc1cc(OC)cc(-c2cc(OC)c(-n3c(=O)ccc4cc(S(=O)(=O)Nc5cccnn5)ccc43)cc2F)c1 | 0.083 µM
COc1cc(C2CCOCC2)c(F)cc1-n1c(=O)ccc2cc(S(=O)(=O)Nc3ccon3)ccc21 | 3.07 µM
COc1cc(C(F)(F)F)c(Cl)cc1-n1c(=O)ccc2cc(S(=O)(=O)Nc3ccncn3)ccc21 | 0.123 µM
CCc1nccc(NS(=O)(=O)c2ccc3c(ccc(=O)n3-c3cc(F)c(Br)cc3OC)c2)n1 | 0.124 µM
COc1cc(-c2ccc(F)c(OC(F)F)c2)c(F)cc1-n1c(=O)ccc2cc(S(=O)(=O)Nc3ccon3)ccc21 | 0.022 µM
COc1cc(-c2ccc(Cl)c(C)c2)ccc1-n1c(=O)ccc2cc(S(=O)(=O)Nc3ncon3)ccc21 | 0.03 µM
COc1nc(OCC2CCCCC2)c(Cl)cc1-n1c(=O)ccc2cc(S(=O)(=O)Nc3ccon3)ccc21 | 0.052 µM
COc1cc(-c2cccc(C(F)F)c2)c(F)cc1-n1c(=O)ccc2cc(S(=O)(=O)Nc3ccon3)ccc21 | 0.035 µM
COc1cc(Br)c(F)cc1-n1c(=O)ccc2cc(S(=O)(=O)Nc3ccnc(C)n3)ccc21 | 3.01 µM
COc1cc(Br)c(F)cc1-n1c(=O)ccc2cc(S(=O)(=O)Nc3cc(C)ncn3)ccc21 | 1.04 µM

Now from value to compound:

IC50 | SMILES
0.037 µM | COc1cc(-c2cc(F)cc(C(F)(F)F)c2)ccc1-n1c(=O)ccc2cc(S(=O)(=O)Nc3ncco3)ccc21
0.005 µM | COc1cc(-c2ccc(Cl)c(C)c2)c(F)cc1-n1c(=O)ccc2cc(S(=O)(=O)Nc3ccncn3)ccc21
0.684 µM | Cc1cc(-c2cc(C)c(-n3c(=O)ccc4cc(S(=O)(=O)Nc5ccncn5)ccc43)cc2F)ccc1Cl
0.035 µM | COc1cc(-c2cc(F)cc(C(F)(F)F)c2)ccc1-n1c(=O)ccc2cc(S(=O)(=O)Nc3ncc(F)cn3)ccc21
0.312 µM | COc1cc(NS(=O)(=O)c2ccc3c(ccc(=O)n3-c3cc(F)c(Br)cc3OC)c2)ncn1
0.009 µM | COc1cc(-c2cc(F)cc(C(F)(F)F)c2)ccc1-n1c(=O)ccc2cc(S(=O)(=O)Nc3ccon3)ccc21
0.076 µM | COc1cc(-c2ccc(F)c(F)c2)ccc1-n1c(=O)ccc2cc(S(=O)(=O)Nc3ncc(F)cn3)ccc21
0.021 µM | COc1cc(-c2ccc(-n3c(=O)ccc4cc(S(=O)(=O)Nc5ncccn5)ccc43)c(OC)c2)ccc1Cl
0.033 µM | COc1cc(OC)cc(-c2cc(OC)c(-n3c(=O)ccc4cc(S(=O)(=O)Nc5ncc(F)cn5)ccc43)cc2F)c1
0.023 µM and 0.006 µM | COc1cc(-c2ccc(Cl)c(C)c2)c(F)cc1-n1c(=O)cnc2cc(S(=O)(=O)Nc3ncccn3)ccc21
0.095 µM | COc1cc(-c2ccc(Cl)cc2)ccc1-n1c(=O)ccc2cc(S(=O)(=O)Nc3ncccn3)ccc21
0.166 µM | COc1cc(-c2ccc(-n3c(=O)ccc4cc(S(=O)(=O)Nc5ncc(F)cn5)ccc43)c(OC)c2)ccc1C
0.009 µM | COc1cc(-c2ccc(F)cc2)c(F)cc1-n1c(=O)ccc2cc(S(=O)(=O)Nc3ccon3)ccc21
0.01 µM | COc1cc(-c2cccc(C(F)(F)F)c2)c(F)cc1-n1c(=O)ccc2cc(S(=O)(=O)Nc3ncccn3)ccc21
0.072 µM | COc1cc(-c2cc(Cl)cnc2OC)c(F)cc1-n1c(=O)ccc2cc(S(=O)(=O)Nc3ncccn3)ccc21
0.023 µM | COc1cc(-c2cccc(OC(F)F)c2)c(F)cc1-n1c(=O)ccc2cc(S(=O)(=O)Nc3ncccn3)ccc21
0.049 µM | COc1cc(Oc2ccc(F)cc2)ccc1-n1c(=O)ccc2cc(S(=O)(=O)Nc3ccon3)ccc21
0.028 µM | COc1cc(-c2cccc(OC(F)F)c2)c(F)cc1-n1c(=O)ccc2cc(S(=O)(=O)Nc3ccnc(C)n3)ccc21
0.01 µM | COc1cc(Cl)cc(-c2ccc(-n3c(=O)ccc4cc(S(=O)(=O)Nc5ccon5)ccc43)c(OC)c2)c1

IC50 | SMILES
0.049 µM | COc1cc(NS(=O)(=O)c2ccc3c(ccc(=O)n3-c3cc(F)c(-c4cc(F)cc(Cl)c4)cc3OC)c2)ncn1
0.016 µM | COc1cc(Cl)ccc1-c1cc(OC)c(-n2c(=O)ccc3cc(S(=O)(=O)Nc4ccon4)ccc32)cc1F
0.016 µM | COc1cc(-c2ccc(F)c(F)c2)c(F)cc1-n1c(=O)ccc2cc(S(=O)(=O)Nc3cccnn3)ccc21
0.193 µM | COc1cc(-c2ccc(F)cc2)c(F)cc1-n1c(=O)ccc2cc(S(=O)(=O)Nc3ncccn3)ccc21
1.56 µM | COc1cc(Br)c(F)cc1-n1c(=O)ccc2cc(S(=O)(=O)Nc3nccc(C)n3)ccc21
0.039 µM | COc1cc(CC2CCCCC2)c(F)cc1-n1c(=O)ccc2cc(S(=O)(=O)Nc3ncccn3)ccc21
0.005 µM | COc1cc(Cl)cc(-c2cc(OC)c(-n3c(=O)ccc4cc(S(=O)(=O)Nc5ncccn5)ccc43)cc2C)c1
0.198 µM | COc1cc(-c2ccc(-n3c(=O)ccc4cc(S(=O)(=O)Nc5cc(C)ncn5)ccc43)c(OC)c2)ccc1C
0.296 µM | COc1cc(-c2ccc(-n3c(=O)ccc4cc(S(=O)(=O)Nc5ccnc(C)n5)ccc43)c(OC)c2)ccc1C
0.093 µM | COc1cc(-c2cc(Cl)ccn2)c(F)cc1-n1c(=O)ccc2cc(S(=O)(=O)Nc3ccon3)ccc21
0.012 µM | COc1cc(-c2cc(Cl)ccc2C)ccc1-n1c(=O)ccc2cc(S(=O)(=O)Nc3ncccn3)ccc21
0.009 µM | COc1cc(-c2ccc(Cl)c(C)c2)ccc1-n1c(=O)ccc2cc(S(=O)(=O)Nc3ncco3)ccc21
0.064 µM | COc1cc(OC)cc(-c2cc(OC)c(-n3c(=O)ccc4cc(S(=O)(=O)Nc5ncccn5)ccc43)cc2F)c1
0.243 µM | COc1cc(-c2ccc(-n3c(=O)ccc4cc(S(=O)(=O)Nc5ncccn5)ccc43)c(OC)c2)ccc1C
0.01 µM | COc1cc(-c2cc(OC)c(-n3c(=O)ccc4cc(S(=O)(=O)Nc5cccnn5)ccc43)cc2F)ccc1Cl
0.052 µM | COc1cc(Cl)cc(-c2ccc(-n3c(=O)cnc4cc(S(=O)(=O)Nc5ccon5)ccc43)c(OC)c2)c1
0.143 µM | COc1cc(-c2ccc(-n3c(=O)ccc4cc(S(=O)(=O)Nc5cccnn5)ccc43)c(OC)c2)ccc1C
0.902 µM | COc1ccc(-c2ccc(F)nc2)cc1-n1c(=O)ccc2cc(S(=O)(=O)Nc3ccon3)ccc21
